Laboratory results taken from ChEMBL document CHEMBL1142358, “3-amino-benzo[d]isoxazoles as novel multitargeted inhibitors of receptor tyrosine kinases” (J Med Chem, 2008).
Calls of active or inactive are those of the source. The calls are words filed in the database; no cut-off is given here.

Columns and labels:
[1] = target: Mast/stem cell growth factor receptor Kit (Homo sapiens, UniProt P10721); test: Inhibition of KIT by HTRF assay
[2] = target: Receptor-type tyrosine-protein kinase FLT3 (Homo sapiens) (UniProt P36888)
Description: Inhibition of FLT3 by HTRF assay

[3] = target: T1, Receptor-type tyrosine-protein kinase FLT3 (Homo sapiens, UniProt P36888)
T1 sequence (P36888 whole entry): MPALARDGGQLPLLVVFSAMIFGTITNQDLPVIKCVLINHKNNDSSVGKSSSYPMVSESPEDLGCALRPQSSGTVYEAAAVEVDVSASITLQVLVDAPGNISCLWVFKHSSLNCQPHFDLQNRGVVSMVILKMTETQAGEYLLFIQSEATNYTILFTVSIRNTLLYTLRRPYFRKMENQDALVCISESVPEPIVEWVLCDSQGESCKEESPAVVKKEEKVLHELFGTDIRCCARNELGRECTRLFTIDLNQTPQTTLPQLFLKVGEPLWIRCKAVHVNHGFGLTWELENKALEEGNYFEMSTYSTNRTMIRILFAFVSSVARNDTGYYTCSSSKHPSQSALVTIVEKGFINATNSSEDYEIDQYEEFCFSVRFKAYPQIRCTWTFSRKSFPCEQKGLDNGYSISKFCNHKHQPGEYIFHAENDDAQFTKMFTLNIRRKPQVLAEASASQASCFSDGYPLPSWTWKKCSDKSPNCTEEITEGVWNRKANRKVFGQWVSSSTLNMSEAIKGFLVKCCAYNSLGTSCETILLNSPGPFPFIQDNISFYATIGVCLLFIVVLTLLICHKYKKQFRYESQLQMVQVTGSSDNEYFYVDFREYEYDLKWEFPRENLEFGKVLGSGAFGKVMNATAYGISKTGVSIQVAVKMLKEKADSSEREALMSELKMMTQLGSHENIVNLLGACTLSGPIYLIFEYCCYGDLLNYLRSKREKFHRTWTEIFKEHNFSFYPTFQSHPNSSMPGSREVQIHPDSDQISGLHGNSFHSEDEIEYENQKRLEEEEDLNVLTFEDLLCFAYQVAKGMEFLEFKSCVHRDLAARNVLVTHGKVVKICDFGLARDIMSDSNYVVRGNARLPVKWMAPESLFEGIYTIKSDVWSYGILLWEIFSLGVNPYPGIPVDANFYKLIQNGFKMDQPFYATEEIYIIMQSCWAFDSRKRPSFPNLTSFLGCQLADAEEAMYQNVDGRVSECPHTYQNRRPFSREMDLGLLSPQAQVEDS
Description: Inhibition of FLT3 by HTRF assay

[4] = target: T2, Vascular endothelial growth factor receptor 2 (Homo sapiens, UniProt P35968)
T2 sequence (P35968 whole entry): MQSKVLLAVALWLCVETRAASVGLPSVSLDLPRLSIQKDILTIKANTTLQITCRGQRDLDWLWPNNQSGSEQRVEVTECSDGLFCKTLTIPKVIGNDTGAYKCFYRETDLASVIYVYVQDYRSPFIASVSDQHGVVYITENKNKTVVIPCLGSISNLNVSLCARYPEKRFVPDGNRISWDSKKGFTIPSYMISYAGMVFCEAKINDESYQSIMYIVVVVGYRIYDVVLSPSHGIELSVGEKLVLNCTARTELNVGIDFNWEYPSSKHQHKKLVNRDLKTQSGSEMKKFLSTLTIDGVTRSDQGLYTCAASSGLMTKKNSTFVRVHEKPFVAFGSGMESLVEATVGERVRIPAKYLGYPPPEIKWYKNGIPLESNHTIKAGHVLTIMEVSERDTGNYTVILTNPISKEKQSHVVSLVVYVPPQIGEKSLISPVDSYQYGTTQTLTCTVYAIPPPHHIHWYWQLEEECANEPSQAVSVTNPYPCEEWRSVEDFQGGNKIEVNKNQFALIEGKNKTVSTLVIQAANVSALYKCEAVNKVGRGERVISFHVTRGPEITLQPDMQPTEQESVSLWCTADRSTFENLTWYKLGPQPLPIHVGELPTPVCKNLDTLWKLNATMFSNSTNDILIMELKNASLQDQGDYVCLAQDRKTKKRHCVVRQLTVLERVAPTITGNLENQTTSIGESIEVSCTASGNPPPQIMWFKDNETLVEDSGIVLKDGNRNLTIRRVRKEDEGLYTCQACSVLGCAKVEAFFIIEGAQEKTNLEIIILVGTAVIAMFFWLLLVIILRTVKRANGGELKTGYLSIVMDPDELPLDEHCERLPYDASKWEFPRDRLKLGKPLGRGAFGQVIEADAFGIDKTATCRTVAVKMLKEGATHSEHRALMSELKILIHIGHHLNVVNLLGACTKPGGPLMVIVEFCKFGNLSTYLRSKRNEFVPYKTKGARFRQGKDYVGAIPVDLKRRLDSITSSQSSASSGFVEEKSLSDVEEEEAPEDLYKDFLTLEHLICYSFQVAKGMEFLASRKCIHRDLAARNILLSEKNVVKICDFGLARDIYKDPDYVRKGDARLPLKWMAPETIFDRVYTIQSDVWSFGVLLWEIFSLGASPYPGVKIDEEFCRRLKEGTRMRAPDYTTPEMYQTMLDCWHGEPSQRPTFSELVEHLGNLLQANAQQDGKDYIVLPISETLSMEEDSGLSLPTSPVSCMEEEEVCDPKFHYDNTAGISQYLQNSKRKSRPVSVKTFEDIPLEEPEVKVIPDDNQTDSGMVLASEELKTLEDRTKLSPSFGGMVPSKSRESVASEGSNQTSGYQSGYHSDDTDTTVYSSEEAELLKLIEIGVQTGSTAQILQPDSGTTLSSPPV
Description: Inhibition of KDR by HTRF assay

[5] = target: Vascular endothelial growth factor receptor 1 (Homo sapiens, UniProt P17948); test: Inhibition of FLT1 by HTRF assay
[6] = target: Platelet-derived growth factor receptor beta (Homo sapiens, UniProt P09619); test: Inhibition of PDGFRbeta by HTRF assay
Chain of Platelet-derived growth factor receptor beta (P09619 whole entry): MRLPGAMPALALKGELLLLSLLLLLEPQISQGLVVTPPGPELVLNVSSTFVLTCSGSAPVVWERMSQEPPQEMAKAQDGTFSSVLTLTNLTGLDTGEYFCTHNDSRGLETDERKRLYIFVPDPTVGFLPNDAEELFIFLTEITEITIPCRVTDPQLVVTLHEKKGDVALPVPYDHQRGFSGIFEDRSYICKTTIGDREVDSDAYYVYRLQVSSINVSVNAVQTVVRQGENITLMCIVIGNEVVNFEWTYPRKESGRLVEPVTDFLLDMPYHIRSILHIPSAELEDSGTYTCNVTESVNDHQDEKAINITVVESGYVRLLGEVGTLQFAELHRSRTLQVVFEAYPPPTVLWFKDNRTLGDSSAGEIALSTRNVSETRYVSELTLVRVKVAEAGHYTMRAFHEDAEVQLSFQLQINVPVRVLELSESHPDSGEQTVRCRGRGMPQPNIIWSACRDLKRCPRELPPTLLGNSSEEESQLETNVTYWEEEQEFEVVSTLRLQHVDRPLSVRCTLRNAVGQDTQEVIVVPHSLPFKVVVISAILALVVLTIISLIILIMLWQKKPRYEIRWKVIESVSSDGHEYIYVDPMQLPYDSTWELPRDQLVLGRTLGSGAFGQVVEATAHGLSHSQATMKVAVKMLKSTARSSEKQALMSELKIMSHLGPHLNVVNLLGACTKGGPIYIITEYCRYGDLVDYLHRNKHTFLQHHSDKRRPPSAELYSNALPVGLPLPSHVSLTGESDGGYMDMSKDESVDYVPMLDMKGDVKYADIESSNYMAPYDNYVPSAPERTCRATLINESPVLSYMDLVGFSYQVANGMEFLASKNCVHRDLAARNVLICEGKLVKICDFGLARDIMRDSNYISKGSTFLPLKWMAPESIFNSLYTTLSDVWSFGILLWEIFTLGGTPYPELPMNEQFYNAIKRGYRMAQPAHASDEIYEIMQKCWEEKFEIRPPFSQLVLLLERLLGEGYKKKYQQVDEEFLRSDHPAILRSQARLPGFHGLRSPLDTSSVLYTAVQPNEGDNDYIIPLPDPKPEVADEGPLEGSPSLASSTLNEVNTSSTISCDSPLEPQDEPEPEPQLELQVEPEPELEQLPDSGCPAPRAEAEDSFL

[7] = Half life in mouse at 1 mg/kg, iv; type: ADME, organism-based; parameters: dose 1 mg/kg, route intravenous; conditions: in vivo
[8] = Volume of distribution in mouse at 1 mg/kg, iv; type: ADME, organism-based; parameters: dose 1 mg/kg, route intravenous; conditions: in vivo
[9] = target: Proto-oncogene tyrosine-protein kinase Src (Homo sapiens, UniProt P12931); test: Inhibition of SRC by HTRF assay
Chain of Proto-oncogene tyrosine-protein kinase Src (P12931 2-536 limits assumed): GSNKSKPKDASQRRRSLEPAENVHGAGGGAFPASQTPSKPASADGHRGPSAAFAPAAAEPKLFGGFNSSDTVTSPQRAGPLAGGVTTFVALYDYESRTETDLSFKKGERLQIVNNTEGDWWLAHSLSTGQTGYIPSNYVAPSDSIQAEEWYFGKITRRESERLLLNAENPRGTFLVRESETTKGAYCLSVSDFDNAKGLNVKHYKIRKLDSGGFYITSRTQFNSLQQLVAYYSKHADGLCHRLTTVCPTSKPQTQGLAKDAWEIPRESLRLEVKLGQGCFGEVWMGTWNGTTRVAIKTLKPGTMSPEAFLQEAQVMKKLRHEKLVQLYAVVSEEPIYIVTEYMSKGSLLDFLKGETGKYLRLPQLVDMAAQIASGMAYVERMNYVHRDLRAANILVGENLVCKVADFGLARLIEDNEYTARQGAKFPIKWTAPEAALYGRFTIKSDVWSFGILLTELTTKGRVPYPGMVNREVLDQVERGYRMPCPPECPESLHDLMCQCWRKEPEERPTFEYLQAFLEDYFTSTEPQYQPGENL

[10] = target: Tyrosine-protein kinase HCK (Homo sapiens, UniProt P08631); test: Inhibition of HCK by HTRF assay
Chain of Tyrosine-protein kinase HCK (P08631 whole entry): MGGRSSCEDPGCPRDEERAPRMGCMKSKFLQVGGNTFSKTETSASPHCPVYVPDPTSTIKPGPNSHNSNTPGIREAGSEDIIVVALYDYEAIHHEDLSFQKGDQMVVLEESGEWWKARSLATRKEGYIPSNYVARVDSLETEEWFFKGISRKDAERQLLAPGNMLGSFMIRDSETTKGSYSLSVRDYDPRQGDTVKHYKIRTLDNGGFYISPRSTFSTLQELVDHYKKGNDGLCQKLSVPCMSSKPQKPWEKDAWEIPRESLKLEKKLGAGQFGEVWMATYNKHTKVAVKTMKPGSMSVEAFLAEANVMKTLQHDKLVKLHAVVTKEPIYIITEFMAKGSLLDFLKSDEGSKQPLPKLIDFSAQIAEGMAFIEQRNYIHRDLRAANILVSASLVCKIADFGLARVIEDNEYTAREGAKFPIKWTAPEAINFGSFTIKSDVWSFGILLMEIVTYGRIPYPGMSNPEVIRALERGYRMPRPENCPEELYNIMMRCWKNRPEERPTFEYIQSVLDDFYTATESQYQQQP

Angiopoietin-1 receptor = Angiopoietin-1 receptor (Homo sapiens, UniProt Q02763); test: Inhibition of TIE2 by HTRF assay
[11] = target: Tyrosine-protein kinase Lyn (Homo sapiens, UniProt P07948); test: Inhibition of LYN by HTRF assay
Chain of Tyrosine-protein kinase Lyn (P07948 whole entry): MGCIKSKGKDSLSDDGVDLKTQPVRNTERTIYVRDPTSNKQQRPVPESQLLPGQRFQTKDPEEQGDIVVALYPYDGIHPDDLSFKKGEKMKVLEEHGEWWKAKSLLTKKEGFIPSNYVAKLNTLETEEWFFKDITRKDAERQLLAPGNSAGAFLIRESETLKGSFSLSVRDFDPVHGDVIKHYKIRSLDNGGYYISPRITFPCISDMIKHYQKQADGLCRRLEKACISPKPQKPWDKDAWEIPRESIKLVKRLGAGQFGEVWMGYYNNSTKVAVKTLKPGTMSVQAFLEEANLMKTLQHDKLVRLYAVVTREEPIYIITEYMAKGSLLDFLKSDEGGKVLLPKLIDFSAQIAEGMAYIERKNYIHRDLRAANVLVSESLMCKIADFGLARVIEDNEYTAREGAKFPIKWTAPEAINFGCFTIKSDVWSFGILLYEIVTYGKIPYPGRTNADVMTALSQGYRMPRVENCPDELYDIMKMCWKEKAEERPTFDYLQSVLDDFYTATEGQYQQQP

HT-1080 = test: Inhibition of tumor growth in human HT1080 cells xenografted in SCID/Beige mouse at 30 mg/kg/day, bid relative to control; conditions: HT-1080, read-out: TGI
Mus musculus = test: Inhibition of estradiol-induced uterine edema in orally dosed BALB/c mouse edema model at 3 mg/kg, po; type: functional
[12] = target: Macrophage colony-stimulating factor 1 receptor (Homo sapiens, UniProt P07333); test: Inhibition of CSF1R by HTRF assay
[13] = Oral bioavailability in mouse at 10 mg/kg; type: ADME, organism-based; conditions: in vivo
[14] = Clearance in mouse at 1 mg/kg, iv; type: ADME, organism-based; parameters: dose 1 mg/kg, route intravenous; conditions: in vivo
[15] = AUC in mouse at 10 mg/kg, po; type: ADME, organism-based; parameters: dose 10 mg/kg, route oral; conditions: plasma
[16] = target: T2, Vascular endothelial growth factor receptor 2; test: Inhibition of human KDR phosphorylation in mouse NIH3T3 cells by ELISA; type: cell-based

Chain of Mast/stem cell growth factor receptor Kit (P10721 whole entry): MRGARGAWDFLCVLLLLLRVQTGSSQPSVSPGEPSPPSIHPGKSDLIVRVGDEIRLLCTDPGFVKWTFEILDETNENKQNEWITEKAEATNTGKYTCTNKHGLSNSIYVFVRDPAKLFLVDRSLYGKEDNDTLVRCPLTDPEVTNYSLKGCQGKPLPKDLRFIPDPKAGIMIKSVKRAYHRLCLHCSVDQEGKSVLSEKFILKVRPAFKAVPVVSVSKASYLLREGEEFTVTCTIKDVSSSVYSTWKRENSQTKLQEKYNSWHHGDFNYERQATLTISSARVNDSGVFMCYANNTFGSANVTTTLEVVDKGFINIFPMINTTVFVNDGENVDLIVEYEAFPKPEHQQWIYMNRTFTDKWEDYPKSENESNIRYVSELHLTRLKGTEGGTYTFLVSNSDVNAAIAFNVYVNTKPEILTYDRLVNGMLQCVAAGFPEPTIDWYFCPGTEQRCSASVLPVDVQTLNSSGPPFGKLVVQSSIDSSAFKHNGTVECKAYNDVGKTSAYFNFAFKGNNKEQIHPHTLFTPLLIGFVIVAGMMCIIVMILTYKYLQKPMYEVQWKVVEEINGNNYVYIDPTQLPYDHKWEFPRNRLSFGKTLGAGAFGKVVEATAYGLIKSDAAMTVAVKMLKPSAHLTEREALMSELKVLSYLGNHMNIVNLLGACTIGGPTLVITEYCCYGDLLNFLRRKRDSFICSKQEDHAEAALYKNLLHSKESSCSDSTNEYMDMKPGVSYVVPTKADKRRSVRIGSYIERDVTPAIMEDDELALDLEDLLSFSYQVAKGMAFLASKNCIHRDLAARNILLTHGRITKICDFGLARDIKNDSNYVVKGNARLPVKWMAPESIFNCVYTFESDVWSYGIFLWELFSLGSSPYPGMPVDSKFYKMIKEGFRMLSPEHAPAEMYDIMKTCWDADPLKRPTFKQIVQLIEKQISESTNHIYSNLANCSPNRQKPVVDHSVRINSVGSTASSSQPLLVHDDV

For `Nc1noc2cccc(-c3ccc(NC(=O)Nc4ccccc4)cc3)c12`, the IC50 [1] was 0.018 µM.
`Cc1ccc(NC(=O)Nc2ccc(-c3cccc4onc(N)c34)cc2)cc1` showed an IC50 [1] of 0.005 µM.
For `Nc1noc2cccc(-c3ccc(NC(=O)Nc4cc(F)cc(F)c4)cc3)c12`, the IC50 [1] was 0.014 µM and the Activity [2] was “inactive”.
With `Nc1ccc(-c2cccc3onc(N)c23)cc1` the IC50 [1] was 14.8 µM.
With `Nc1noc2cccc(-c3ccc(NC(=O)Nc4cccc([N+](=O)[O-])c4)cc3)c12` the IC50 [1] was 0.014 µM and the IC50 [3] was 0.005 µM.
With `Cc1ccc(F)c(NC(=O)Nc2ccc(-c3ccc(F)c4onc(N)c34)cc2)c1` the IC50 [1] was 0.216 µM, the IC50 [3] was 0.173 µM and the IC50 [4] was 0.211 µM.
`Nc1noc2cccc(-c3ccc(NC(=O)Nc4ccccc4OC(F)(F)F)cc3)c12` gave an IC50 [1] of 0.166 µM and an IC50 [3] of 0.06 µM.
With `Nc1noc2cccc(-c3ccc(NC(=O)Nc4ccccc4F)cc3)c12` the IC50 [1] was 0.021 µM.
With `Cc1ccc(F)c(NC(=O)Nc2ccc(-c3ccc(C)c4onc(N)c34)cc2)c1` the IC50 [1] was 0.064 µM and the IC50 [3] was 0.061 µM.
`Nc1nsc2cccc(-c3ccc(NC(=O)Nc4cccc(C(F)(F)F)c4)cc3)c12` gave an IC50 [1] of 2.63 µM, an IC50 [3] of 1.26 µM and an IC50 [4] of 0.247 µM.
In the case of `Nc1noc2cccc(-c3ccc(NC(=O)Nc4cccc(C(F)(F)F)c4)cc3)c12`, the IC50 [1] is reported as 0.114 µM and the IC50 [3] is reported as 0.064 µM.
Work on `Cc1ccc(F)c(NC(=O)Nc2ccc(-c3cccc4onc(N)c34)cc2)c1` yielded an IC50 [1] of 0.023 µM.
Molecule `Nc1noc2cccc(-c3ccc(NC(=O)Nc4ccc(F)c(Cl)c4)cc3)c12` has an IC50 [1] of 0.036 µM and an IC50 [3] of 0.022 µM.
For `COc1ccc(-c2ccc(NC(=O)Nc3cccc(Cl)c3)cc2)c2c(N)noc12`, the IC50 [5] was 0.038 µM, the IC50 [1] was 0.072 µM and the Activity [6] was “inactive”. The half-life [7] was 54 min, the Vd [8] was 1.2 L/kg and the IC50 [9] was > 50 µM. For the same molecule, the IC50 [10] was > 50 µM, the IC50 (Angiopoietin-1 receptor) was 1 µM and the IC50 [11] was > 50 µM. It also gave an inhibition in vivo at 30 mg/kg/day (HT-1080) of 45%, an inhibition in vivo at 3 mg/kg (Mus musculus) of 90% and an IC50 [12] of 0.04 µM. It also gave an IC50 [3] of 0.03 µM, a bioavailability [13] of 99% and a clearance [14] of 0.93 L/h/kg. The AUC [15] was 25.8 µM·h.
Work on `COc1ccc(NC(=O)Nc2ccc(-c3cccc4onc(N)c34)cc2)cc1Cl` yielded an IC50 [16] of 0.036 µM, an IC50 [3] of 0.008 µM and an IC50 [4] of 0.008 µM.
For `Nc1noc2cccc(-c3ccc(NC(=O)Nc4cccc(Cl)c4)cc3)c12`, the IC50 [1] was 0.01 µM and the IC50 [3] was 0.006 µM.
For `Cc1ccc(NC(=O)Nc2ccc(-c3cccc4onc(N)c34)cc2)cc1Cl`, the IC50 [1] was 0.05 µM.
Work on `NC(=O)Nc1ccc(-c2cccc3onc(N)c23)cc1` yielded an IC50 [1] of 4.44 µM.
Work on `Cc1ccc(F)c(NC(=O)Nc2ccc(-c3cccc4snc(N)c34)cc2)c1` yielded an IC50 [1] of 0.79 µM, an IC50 [3] of 1.5 µM and an IC50 [4] of 0.628 µM.
Molecule `Cc1ccc(F)c(NC(=O)Nc2ccc(-c3ccc(OCCN4CCOCC4)c4onc(N)c34)cc2)c1` has an IC50 [1] of 0.071 µM and an IC50 [3] of 0.034 µM.
